≈ marks a conversion by molar mass, not a printed value.
Assays:
[1] = tested on: Mycobacterium tuberculosis; test: Antimycobacterial activity against Mycobacterium tuberculosis H37Rv; type: functional
[2] = Cytotoxicity against HEK293T cells assessed as reduction in cell viability; type: toxicity, cell-based, HEK-293T; details: human
[3] = tested on: Mycobacterium tuberculosis; test: Antimycobacterial activity against non replicating Mycobacterium tuberculosis by broth dilution method; type: functional
[4] = tested on: Mycobacterium tuberculosis; test: Antimycobacterial activity against Mycobacterium tuberculosis H37Rv ATCC 27294 by broth dilution method; type: functional
[5] = tested on: J774; test: Cytotoxicity against mouse J774 cells incubated for 24 hrs by MTT assay; type: toxicity, cell-based; details: j774, 24 h
[6] = Selectivity index, ratio of GI50 for cytotoxicity against human MCF7 cells to MIC for antitubercular activity against dormant stage of Mycobacterium tuberculosis H37Ra; type: toxicity, cell-based; details: read-out: Selectivity Index
[7] = Cytotoxicity against HUVEC cells assessed as cell growth inhibition; type: toxicity, cell-based; details: human
[8] = Selectivity index, ratio of GI50 for cytotoxicity against human HeLa cells to MIC for antitubercular activity against active stage of Mycobacterium tuberculosis H37Ra; type: toxicity, cell-based; details: read-out: Selectivity Index
[9] = tested on: Mycobacterium tuberculosis; test: Antitubercular activity against active stage of Mycobacterium tuberculosis H37Ra; type: functional
[10] = tested on: Mycobacterium tuberculosis; test: Antitubercular activity against dormant stage of Mycobacterium tuberculosis H37Ra; type: functional
[11] = Selectivity index, ratio of GI50 for cytotoxicity against human HeLa cells to MIC for antitubercular activity against dormant stage of Mycobacterium tuberculosis H37Ra; type: toxicity, cell-based; details: read-out: Selectivity Index
[12] = tested on: MCF7; test: Cytotoxicity against human MCF7 cells assessed as cell growth inhibition; type: functional
[13] = Selectivity index, ratio of GI50 for cytotoxicity against HUVEC cells to MIC for antitubercular activity against dormant stage of Mycobacterium tuberculosis H37Ra; type: toxicity, cell-based; details: human, read-out: Selectivity Index
[14] = Selectivity index, ratio of GI50 for cytotoxicity against HUVEC cells to MIC for antitubercular activity against active stage of Mycobacterium tuberculosis H37Ra; type: toxicity, cell-based; details: human, read-out: Selectivity Index
[15] = Selectivity index, ratio of GI50 for cytotoxicity against human MCF7 cells to MIC for antitubercular activity against active stage of Mycobacterium tuberculosis H37Ra; type: toxicity, cell-based; details: read-out: Selectivity Index
[16] = tested on: HeLa; test: Cytotoxicity against human HeLa cells assessed as cell growth inhibition; type: functional

Compound `CC(=O)N1/C(=C/c2ccc(NC(C)C)cc2)C(=O)c2ccccc21` has an MIC90 [1] greater than 20 µM, an MIC99 [1] greater than 20 µM and a CC50 [2] of 19 µM.
Work on `Cc1cc(-c2cn(C[C@@]3(C)Cn4cc([N+](=O)[O-])nc4O3)nn2)ccc1F` yielded an MIC [3] of 4 mg/L (≈ 11.2 µM), an MIC [4] of 2 mg/L (≈ 5.58 µM) and an Activity [5] greater than 40 µg/mL.
`Cc1ccc(OCc2cn(C[C@@]3(C)Cn4cc([N+](=O)[O-])nc4O3)nn2)cc1` gave an MIC [3] of 2 mg/L (≈ 5.4 µM), an MIC [4] of 1 mg/L (≈ 2.7 µM) and an Activity [5] greater than 40 µg/mL.
With `CCc1ccc(OCc2cn(C[C@@]3(C)Cn4cc([N+](=O)[O-])nc4O3)nn2)cc1` the MIC [3] was 2 mg/L (≈ 5.2 µM), the MIC [4] was 2 mg/L (≈ 5.2 µM) and the Activity [5] was greater than 40 µg/mL.
`O=C(OCc1ccccc1)c1ccsc1NC(=O)[C@@H]1CCCN1` showed a selectivity ratio [6] greater than 66.5, a GI50 [7] greater than 250 mg/L and a selectivity ratio [8] greater than 11.8. For the same compound, the MIC [9] was 21.1 mg/L (≈ 63.9 µM), the MIC [10] was 3.76 mg/L (≈ 11.4 µM) and the selectivity ratio [11] was greater than 66.5. It also gave a GI50 [12] greater than 250 mg/L, a selectivity ratio [13] greater than 66.5 and a selectivity ratio [14] greater than 11.8. For the same compound, the selectivity ratio [15] was greater than 11.8 and the GI50 [16] was greater than 250 mg/L.
Work on `C[C@]1(Cn2cc(CN3CCOCC3)nn2)Cn2cc([N+](=O)[O-])nc2O1` yielded an MIC [3] of 1 mg/L (≈ 2.86 µM), an MIC [4] of 2 mg/L (≈ 5.72 µM) and an Activity [5] greater than 40 µg/mL.
Work on `Cc1cccc(OCc2cn(C[C@@]3(C)Cn4cc([N+](=O)[O-])nc4O3)nn2)c1` yielded an MIC [3] of 0.5 mg/L (≈ 1.35 µM), an MIC [4] of 0.5 mg/L (≈ 1.35 µM) and an Activity [5] greater than 40 µg/mL.
Work on `Cc1ccc(OCCc2cn(C[C@@]3(C)Cn4cc([N+](=O)[O-])nc4O3)nn2)cc1` yielded an MIC [1] of 0.25 mg/L (≈ 0.65 µM), an MIC [4] of 0.25 mg/L (≈ 0.65 µM) and an Activity [5] greater than 40 µg/mL.
Work on `Cc1ccc(SCc2cn(C[C@@]3(C)Cn4cc([N+](=O)[O-])nc4O3)nn2)cc1` yielded an MIC [3] of 1 mg/L (≈ 2.59 µM), an MIC [4] of 2 mg/L (≈ 5.18 µM) and an Activity [5] greater than 40 µg/mL.
Work on `C[C@]1(Cn2cc(-c3ccc(C(F)(F)F)cc3)nn2)Cn2cc([N+](=O)[O-])nc2O1` yielded an MIC [3] of 8 mg/L (≈ 20.3 µM), an MIC [4] of 2 mg/L (≈ 5.07 µM) and an Activity [5] greater than 40 µg/mL.
For `O=C(OCC(F)(F)F)c1ccsc1NC(=O)[C@@H]1CCCN1`, the selectivity ratio [6] was 83, the GI50 [7] was greater than 250 mg/L and the selectivity ratio [8] was 13.3. The MIC [9] was 8.23 mg/L (≈ 25.5 µM), the MIC [10] was 1.08 mg/L (≈ 3.35 µM) and the selectivity ratio [11] was 101. The GI50 [12] was 89.7 mg/L (≈ 278 µM), the selectivity ratio [13] was greater than 231 and the selectivity ratio [14] was greater than 30.4. The selectivity ratio [15] was 10.9 and the GI50 [16] was 109 mg/L (≈ 339 µM).
Work on `C[C@]1(Cn2cc(-c3ccc(F)cc3)nn2)Cn2cc([N+](=O)[O-])nc2O1` yielded an MIC [3] of 2 mg/L (≈ 5.81 µM), an MIC [4] of 1 mg/L (≈ 2.9 µM) and an Activity [5] greater than 40 µg/mL.
In the case of `CCOC(=O)c1ccsc1NC(=O)[C@@H]1CCCN1`, the selectivity ratio [6] is reported as greater than 32.8, the GI50 [7] is reported as greater than 250 mg/L and the selectivity ratio [8] is reported as 3.88. The MIC [9] was 9.08 mg/L (≈ 33.8 µM), the MIC [10] was 7.62 mg/L (≈ 28.4 µM) and the selectivity ratio [11] was 4.63. It also gave a GI50 [12] greater than 250 mg/L, a selectivity ratio [13] greater than 32.8 and a selectivity ratio [14] greater than 27.5. It also gave a selectivity ratio [15] greater than 27.5 and a GI50 [16] of 35.3 mg/L (≈ 132 µM).
Compound `C=CCOC(=O)c1ccsc1NC(=O)[C@@H]1CCCN1` has a selectivity ratio [6] of 47.6, a GI50 [7] of 149 mg/L (≈ 531 µM) and a selectivity ratio [8] of 4.08. For the same compound, the MIC [9] was 23.2 mg/L (≈ 82.8 µM), the MIC [10] was 2.03 mg/L (≈ 7.24 µM) and the selectivity ratio [11] was 46.7. For the same compound, the GI50 [12] was 96.6 mg/L (≈ 345 µM), the selectivity ratio [13] was 73.3 and the selectivity ratio [14] was 6.41. For the same compound, the selectivity ratio [15] was 4.16 and the GI50 [16] was 94.9 mg/L (≈ 338 µM).
Work on `C[C@]1(Cn2cc(COc3cccc(F)c3)nn2)Cn2cc([N+](=O)[O-])nc2O1` yielded an MIC [3] of 2 mg/L (≈ 5.34 µM), an MIC [4] of 1 mg/L (≈ 2.67 µM) and an Activity [5] greater than 40 µg/mL.
`C[C@]1(Cn2cc(-c3ccc(F)cc3F)nn2)Cn2cc([N+](=O)[O-])nc2O1` gave an MIC [3] of 8 mg/L (≈ 22.1 µM), an MIC [4] of 1 mg/L (≈ 2.76 µM) and an Activity [5] greater than 40 µg/mL.
With `CC(=O)N1/C(=C/c2cccc(-c3ccc(Cl)cc3)c2)C(=O)c2ccccc21` the MIC90 [1] was 6.44 µM (≈ 2.41 µg/mL), the MIC99 [1] was 7.85 µM (≈ 2.93 µg/mL) and the CC50 [2] was 4 µM.
`O=C(Oc1ccccc1)c1ccsc1NC(=O)[C@@H]1CCCN1` gave a selectivity ratio [6] greater than 10.6, a GI50 [7] greater than 250 mg/L and a selectivity ratio [8] greater than 10.1. The MIC [9] was 24.7 mg/L (≈ 78.2 µM), the MIC [10] was 23.7 mg/L (≈ 74.8 µM) and the selectivity ratio [11] was greater than 10.6. It also gave a GI50 [12] greater than 250 mg/L, a selectivity ratio [13] greater than 10.6 and a selectivity ratio [14] greater than 10.1. It also gave a selectivity ratio [15] greater than 10.1 and a GI50 [16] greater than 250 mg/L.
Work on `C[C@]1(Cn2cc(-c3ccc(OC(F)(F)F)cc3)nn2)Cn2cc([N+](=O)[O-])nc2O1` yielded an MIC [3] of 4 mg/L (≈ 9.75 µM), an MIC [4] of 2 mg/L (≈ 4.87 µM) and an Activity [5] greater than 40 µg/mL.

From ChEMBL document CHEMBL5244273, “Tuberculosis: An Overview of the Immunogenic Response, Disease Progression, and Medicinal Chemistry Efforts in the Last Decade toward the Development of Potential Drugs for Extensively Drug-Resistant Tuberculosis Strains” (J Med Chem, 2021)
